Earlier results, collected in patent publication US20110184054A1, “Alpha-lipoic acid concentrate” (AQUANOVA GERMAN SOLUBILISATE TECHNOLOGIES (AGT) GmbH, priority 2004, published 2011).

With `O=C(O)CCCCC1CCSS1` (stereo not drawn) [α-lipoic acid] as the compound, how does the appetite suppressing effect (rats) read?
The appetite suppressing effect was “a certain appetite suppressing effect”.

What about the “effect on problems of overweight patients” value (overweight patients) of the same compound?
The value was “alleviates their problems”.
